# Values of other authors as cited in patent US7501533B2, “Process for preparing lysophosphatidylcholine” (Chem SpA, priority 2004, dated 2009).
# Test system: rats
# Settings: from Sax and others, Dangerous Properties of Industrial Materials, edition VII
row,SMILES,LD50 (acute oral toxicity)
1,CCCCCCC[CH2][Sn](=[O])[CH2]CCCCCCC [dioctyltin oxide],LD50 = 2500 mg/kg
2,CCC[CH2][Sn](=[O])[CH2]CCC [dibutyltin oxide],LD50 = 44.9 mg/kg
